How the values were obtained:
[1] = Hyaluronidase degradation of HA hydrogel and release of hESCs
Method: (§1) Cell-gel constructs were cultivated in hESC grwoth medium containing 100 ng/ml bFGF or MEF conditioned media as previously described^1 Briefly, hESCs growth medium was incubated on inactivated MEF for 24 hours and collected and filtrated. bFGF (4 ng/ml) was added before use. Constructs were incubated up to 40 days. To release encapsulated hESCs, HA constructs were incubated for 24 h in hESC growth medium containing 100, 500, 1000 or 2000 U/ml hyaluronidase (Sigma, St. Louis, Mo.). For re-culture, cells were collected, centrifuged, washed three times with PBS to remove any hydrogel residues, re-suspended in growth medium, and cultured on MEF coated dishes using standard methods^22,23. For EB formation, hESCs were cultivated in non-adherent Petri-dishes.

hESCs [2] = experiment: Long-term (24 hours) hyaluronidase treatment of hESC colonies; type: cell-based, human; details: growth medium containing hyaluronidase at all concentrations
Method: as §1

hESCs [3] = experiment: Karyotyping analysis; type: cell-based, human; details: hESCs on MEFs (H9 p22; H13 p25) treated with hyaluronidase 2000 U/ml for 24 h
Method: Karyotyping analysis. Cells were prepared and analyzed as previously described and recommended^30. Karyotyping analysis was performed by Dana Faber /Harvard Cancer Research Center, Cytogenetics Laboratory, Cambridge, Mass.

degradation of the HA hydrogel ([1]; 2000 U/ml hyaluronidase in growth medium): complete degradation
release of hESC colonies from the hydrogel ([1]; 2000 U/ml hyaluronidase in growth medium, after 24 hr): completely released
degradation of HA hydrogels ([1]; hyaluronidase concentrations of <1000 U/ml, 24 hr): only partial degradation
Substance: hyaluronidase
state of hydrogel and hESCs ([1]; 2000 U/ml hyaluronidase in growth medium, after 18 hr): small particles of hydrogels remained that trapped hESCs
hESC colony morphology and viability (hESCs [2]): preserved their normal morphology with no apparent loss of viability
karyotype (hESCs [3]): normal 46XX karyotyping
